The structures appear in SMILES notation.

Drawing on US4562202A, “N-Acyl hexahydroindole-2-carboxylic acids and anti-hypertensive use thereof” (Hoechst Aktiengesellschaft, priority 1982, dated 1985), this text covers ED50 for seven molecules.

The test system of the experiment is pressor reaction induced by angiotensin I. Kind of experiment: Inhibition of the pressor reaction induced by 310 ng of angiotensin I, intraduodenal administration to the anaesthetized rat. Format: in vivo. Particulars: 0.5 h, 310 ng angiotensin I, 30 min. after administration, read-out: ED50 (50% inhibition of the pressor reaction induced by 310 ng of angiotensin I 30 min. after administration). As to the method: intraduodenal administration to the anaesthetized rat, 50% inhibition of the pressor reaction induced by 310 ng of angiotensin I 30 min. after administration in the dose . . . =ED50 : […]
With `CCOC(=O)[C@H](CCc1ccccc1)N[C@@H](C)C(=O)N1C(C(=O)O)CC2CCC=CC21` (stereo partly drawn) [N-(1S-carboethoxy-3-phenylpropyl)-S-alanyl-cis-2,3,3a,4,5,7a-hexahydro[1H]indole-2R,S-endo-carboxylic acid], the ED50 came out at 0.08 mg/kg. The same measure for `CCOC(=O)[C@H](CC(=O)c1ccccc1)N[C@@H](C)C(=O)N1[C@@H]2C=CCC[C@@H]2C[C@H]1C(=O)O` [N-(1S-carboethoxy-3-oxophenylpropyl)-S-alanyl-cis-2,3,3a,4,5,7a-hexahydro[1H]indole-2S-exocarboxylic acid]: 0.5 mg/kg; for `CCOC(=O)[C@H](CCc1ccccc1)N[C@@H](C)C(=O)N1[C@@H]2C=CCC[C@@H]2C[C@H]1C(=O)O` [N-(1S-carboethoxy-3-phenylpropyl)-S-alanyl-cis-2,3,3a,4,5,7a-hexahydro[1H]indole-2S-exo-carboxylic acid]: 0.07 mg/kg. The result for `CCOC(=O)[C@H](CC(=O)c1ccccc1)N[C@@H](C)C(=O)N1[C@H](C(=O)O)C[C@@H]2CCC=C[C@@H]21` [N-(1S-carboethoxy-3-oxo-3-phenylpropyl)-S-alanyl-cis-2,3,3a,4,5,7a-hexahydro[1H]indole-2S-endocarboxylic acid] reads 0.39 mg/kg. The same measure for `CCOC(=O)[C@H](CCc1ccccc1)N[C@@H](C)C(=O)N1[C@H](C(=O)O)C[C@@H]2CCC=C[C@@H]21` [N-(1S-carboethoxy-3-phenylpropyl)-S-alanyl-cis-2,3,3a,4,5,7a-hexahydro [1H]indole-2S-endo-carboxylic acid]: 0.04 mg/kg; for `C[C@H](N[C@@H](CCc1ccccc1)C(=O)O)C(=O)N1[C@H](C(=O)O)C[C@@H]2CCC=C[C@@H]21` [N-(1S-carboxy-3-phenylpropyl)-S-alanyl-cis-2,3,3a,4,5,7a-hexahydro[1H]indole-2S-endo-carboxylic acid]: 0.6 mg/kg.

With `C[C@H](N[C@@H](CCc1ccccc1)C(=O)O)C(=O)N1[C@@H]2C=CCC[C@@H]2C[C@H]1C(=O)O` [N-(1S-carboxy-3-phenylpropyl)-S-alanyl-cis-2,3,3a,4,5,7a-hexahydro[1H]indole-2S-exo-carboxylic acid], the ED50 is 0.7 mg/kg.
